{"source": "patent US8946160B2", "about": "“Nitric oxide amino acid esters for improving vascular circulation, and prophylaxis or treatment of a condition associated with impaired blood circulation” (Oral Delivery Technology Ltd., priority 2010, dated 2015)", "origin": "cited, not measured here"}
{"smiles": "O=[N+]([O-])OCC(CO[N+](=O)[O-])O[N+](=O)[O-]", "note": "[nitroglycerin]", "values": [{"measurement": "maximum shelf life of a product containing nitroglycerin", "value": "about six"}]}
